This is an account of results in BindingDB's records for doi:10.1016/j.bmcl.2010.05.049 (University of Athens, 2010).

Structures are written as SMILES.

This experiment is described as follows: Binding affinity to Influenza A Weybridge(H7N7) virus Matrix protein 2 by spectrophotometry.

Turning to `NC12CC3CC(CC(C3)C1)C2` [SYMADINE], the Kd (usually the equilibrium constant for the complex coming apart) amounted to 0.32 µM. With `NC12CC3CC(C1)CC(F)(C3)C2`, the Kd worked out at 4.86 µM. In turn, `CCC1(N)C2CC3CC(C2)CC1C3` (stereo unspecified) displayed a Kd of 6.7 µM.

Consider `NC1CCCCCC1` [Cycloheptanamine], for which the Kd amounted to 16.2 µM. `O=C1CCC2(N1)C1CC3CC(C1)CC2C3` (stereo unspecified) gave a Kd of 1.49 µM. Compared with the last compound, the Kd is about 11-fold lower. As to `NC1CCCCCCC1` [Cyclooctanamine], the Kd came out at 1.83 µM.

Take `CCCC1(N)C2CC3CC(C2)CC1C3` (stereo unspecified): the Kd was found to be 8.71 µM. This Kd lies about 4.8-fold higher than the previous one. The result for `C1CNC(C23CC4CC(CC(C4)C2)C3)C1` (stereo unspecified) reads 0.51 µM; that for `NC1C2CC3CC(C2)CC1C3` (stereo unspecified) [2-Adamantanamine], 2.36 µM; that for `CN1CCCC12C1CC3CC(C1)CC2C3` (stereo unspecified), 2.93 µM. For `C1CNC2(C1)C1CC3CC(C1)CC2C3` (stereo unspecified) the value was 1.16 µM; for `CC1CCC2(N1)C1CC3CC(C1)CC2C3` (stereo unspecified), 1.5 µM; for `C1CCC(C23CC4CC(CC(C4)C2)C3)NC1` (stereo unspecified), 1.51 µM. `CC1(N)C2CC3CC(C2)CC1C3` (stereo unspecified) returned a Kd of 3.6 µM. Compound `C1CCC2(NC1)C1CC3CC(C1)CC2C3` (stereo unspecified) came in with a Kd of 0.39 µM. For `CCC1CCC2(N1)C1CC3CC(C1)CC2C3` (stereo unspecified) the value was 5.58 µM.
